Values of other authors as cited in patent US20130142849A1 (LUPIN LIMITED, priority 2010, published 2013).
Where two headings read alike, the source gives them in different places.

Compound: CCCCc1oc2ccc(NS(C)(=O)=O)cc2c1C(=O)c1ccc(OCCCN(CCCC)CCCC)cc1.Cl [Dronedarone, N-{2-butyl-3-[4-(3-dibutylaminopropoxy)benzoyl]benzofuran-5-yl}methane sulfonamide, hydrochloride]
- absolute oral bioavailability (administered with a high fat meal): approx. 15%
- absolute oral bioavailability (fasting): 4%
